According to ChEMBL document CHEMBL5291721, “A preclinical secondary pharmacology resource illuminates target-adverse drug reaction associations of marketed drugs” (Nat Commun, 2023):

What was measured:
[1] = target: T1, B1 bradykinin receptor (Homo sapiens, UniProt P46663)
T1 sequence (P46663 whole entry): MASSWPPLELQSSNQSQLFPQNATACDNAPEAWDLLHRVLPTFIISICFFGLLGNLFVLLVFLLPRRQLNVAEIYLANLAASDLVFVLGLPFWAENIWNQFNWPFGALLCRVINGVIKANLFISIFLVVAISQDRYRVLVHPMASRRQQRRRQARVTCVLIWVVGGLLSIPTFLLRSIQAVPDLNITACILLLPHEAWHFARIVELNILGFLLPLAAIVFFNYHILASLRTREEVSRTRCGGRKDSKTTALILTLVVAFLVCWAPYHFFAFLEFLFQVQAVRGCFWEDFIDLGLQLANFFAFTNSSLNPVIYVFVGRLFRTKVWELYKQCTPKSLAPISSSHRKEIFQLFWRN

[2] = target: T2, Corticotropin-releasing factor receptor 2 (Homo sapiens, UniProt Q13324)
T2 sequence (Q13324 whole entry): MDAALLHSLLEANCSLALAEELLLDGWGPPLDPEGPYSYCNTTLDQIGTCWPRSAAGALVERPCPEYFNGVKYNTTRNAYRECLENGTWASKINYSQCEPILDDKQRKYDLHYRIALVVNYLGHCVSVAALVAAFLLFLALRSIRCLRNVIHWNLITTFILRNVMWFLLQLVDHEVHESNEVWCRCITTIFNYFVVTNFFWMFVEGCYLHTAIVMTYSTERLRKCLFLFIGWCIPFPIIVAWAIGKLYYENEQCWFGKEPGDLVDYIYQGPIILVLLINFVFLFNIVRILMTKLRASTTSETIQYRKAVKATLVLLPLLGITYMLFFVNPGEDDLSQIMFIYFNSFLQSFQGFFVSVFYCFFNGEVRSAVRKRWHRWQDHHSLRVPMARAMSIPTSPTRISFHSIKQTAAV

[3] = target: T3, D(1A) dopamine receptor (Homo sapiens, UniProt P21728)
T3 sequence (P21728 whole entry): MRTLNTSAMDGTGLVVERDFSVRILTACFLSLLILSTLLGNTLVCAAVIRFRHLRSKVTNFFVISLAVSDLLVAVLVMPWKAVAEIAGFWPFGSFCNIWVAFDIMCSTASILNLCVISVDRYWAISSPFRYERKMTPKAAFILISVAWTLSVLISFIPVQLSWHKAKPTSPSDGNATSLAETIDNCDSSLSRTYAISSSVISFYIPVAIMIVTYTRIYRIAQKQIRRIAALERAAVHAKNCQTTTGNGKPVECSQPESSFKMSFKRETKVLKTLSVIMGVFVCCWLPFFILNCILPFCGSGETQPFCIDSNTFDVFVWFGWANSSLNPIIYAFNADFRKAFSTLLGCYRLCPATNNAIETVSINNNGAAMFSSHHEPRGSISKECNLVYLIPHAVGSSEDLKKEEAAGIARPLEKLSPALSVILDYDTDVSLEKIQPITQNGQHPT

[4] = target: 5-hydroxytryptamine receptor 2A (Homo sapiens, UniProt P28223)
Chain of 5-hydroxytryptamine receptor 2A (P28223 whole entry): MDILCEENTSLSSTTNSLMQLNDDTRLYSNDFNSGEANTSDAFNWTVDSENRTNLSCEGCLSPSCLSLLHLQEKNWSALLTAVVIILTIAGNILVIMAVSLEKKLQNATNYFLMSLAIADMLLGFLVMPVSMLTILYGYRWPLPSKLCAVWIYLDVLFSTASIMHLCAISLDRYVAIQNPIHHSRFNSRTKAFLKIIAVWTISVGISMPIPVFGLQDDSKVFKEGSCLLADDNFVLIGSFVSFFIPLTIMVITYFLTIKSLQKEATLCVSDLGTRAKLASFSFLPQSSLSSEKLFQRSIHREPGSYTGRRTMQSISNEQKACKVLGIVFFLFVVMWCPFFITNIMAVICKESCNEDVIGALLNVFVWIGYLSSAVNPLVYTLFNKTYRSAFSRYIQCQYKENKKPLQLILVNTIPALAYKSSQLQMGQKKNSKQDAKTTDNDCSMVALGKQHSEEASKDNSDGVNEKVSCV

[5] = target: Beta-1 adrenergic receptor (Homo sapiens, UniProt P08588); type: functional, cell-based
Chain of Beta-1 adrenergic receptor (P08588 whole entry): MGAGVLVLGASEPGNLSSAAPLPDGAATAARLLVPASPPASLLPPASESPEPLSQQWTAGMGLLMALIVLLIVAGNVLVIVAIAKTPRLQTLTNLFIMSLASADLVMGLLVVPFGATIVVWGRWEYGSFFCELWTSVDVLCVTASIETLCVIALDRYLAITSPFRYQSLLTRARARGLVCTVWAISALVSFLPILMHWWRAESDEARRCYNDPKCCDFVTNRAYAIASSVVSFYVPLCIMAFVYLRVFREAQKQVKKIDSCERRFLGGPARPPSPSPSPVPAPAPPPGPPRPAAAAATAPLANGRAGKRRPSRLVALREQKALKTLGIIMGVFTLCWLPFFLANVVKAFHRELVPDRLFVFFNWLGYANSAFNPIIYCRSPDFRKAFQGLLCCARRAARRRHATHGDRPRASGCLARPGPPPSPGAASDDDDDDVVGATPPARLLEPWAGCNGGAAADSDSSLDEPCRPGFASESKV

[6] = target: 5-hydroxytryptamine receptor 6 (Homo sapiens, UniProt P50406)
Chain of 5-hydroxytryptamine receptor 6 (P50406 whole entry): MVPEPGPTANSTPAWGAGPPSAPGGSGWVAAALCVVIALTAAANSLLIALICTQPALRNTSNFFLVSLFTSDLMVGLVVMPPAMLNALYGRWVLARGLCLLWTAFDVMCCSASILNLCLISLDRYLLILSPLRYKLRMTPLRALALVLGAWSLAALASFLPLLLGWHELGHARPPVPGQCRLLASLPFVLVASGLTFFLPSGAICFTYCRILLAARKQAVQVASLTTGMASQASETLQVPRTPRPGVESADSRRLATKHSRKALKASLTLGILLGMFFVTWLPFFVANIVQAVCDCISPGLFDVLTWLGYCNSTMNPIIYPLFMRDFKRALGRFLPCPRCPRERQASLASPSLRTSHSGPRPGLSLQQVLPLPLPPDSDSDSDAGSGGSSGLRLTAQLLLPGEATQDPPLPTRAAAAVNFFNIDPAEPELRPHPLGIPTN

[7] = target: Gamma-aminobutyric acid type B receptor subunit 1 (Homo sapiens, UniProt Q9UBS5)
Chain of Gamma-aminobutyric acid type B receptor subunit 1 (Q9UBS5 whole entry): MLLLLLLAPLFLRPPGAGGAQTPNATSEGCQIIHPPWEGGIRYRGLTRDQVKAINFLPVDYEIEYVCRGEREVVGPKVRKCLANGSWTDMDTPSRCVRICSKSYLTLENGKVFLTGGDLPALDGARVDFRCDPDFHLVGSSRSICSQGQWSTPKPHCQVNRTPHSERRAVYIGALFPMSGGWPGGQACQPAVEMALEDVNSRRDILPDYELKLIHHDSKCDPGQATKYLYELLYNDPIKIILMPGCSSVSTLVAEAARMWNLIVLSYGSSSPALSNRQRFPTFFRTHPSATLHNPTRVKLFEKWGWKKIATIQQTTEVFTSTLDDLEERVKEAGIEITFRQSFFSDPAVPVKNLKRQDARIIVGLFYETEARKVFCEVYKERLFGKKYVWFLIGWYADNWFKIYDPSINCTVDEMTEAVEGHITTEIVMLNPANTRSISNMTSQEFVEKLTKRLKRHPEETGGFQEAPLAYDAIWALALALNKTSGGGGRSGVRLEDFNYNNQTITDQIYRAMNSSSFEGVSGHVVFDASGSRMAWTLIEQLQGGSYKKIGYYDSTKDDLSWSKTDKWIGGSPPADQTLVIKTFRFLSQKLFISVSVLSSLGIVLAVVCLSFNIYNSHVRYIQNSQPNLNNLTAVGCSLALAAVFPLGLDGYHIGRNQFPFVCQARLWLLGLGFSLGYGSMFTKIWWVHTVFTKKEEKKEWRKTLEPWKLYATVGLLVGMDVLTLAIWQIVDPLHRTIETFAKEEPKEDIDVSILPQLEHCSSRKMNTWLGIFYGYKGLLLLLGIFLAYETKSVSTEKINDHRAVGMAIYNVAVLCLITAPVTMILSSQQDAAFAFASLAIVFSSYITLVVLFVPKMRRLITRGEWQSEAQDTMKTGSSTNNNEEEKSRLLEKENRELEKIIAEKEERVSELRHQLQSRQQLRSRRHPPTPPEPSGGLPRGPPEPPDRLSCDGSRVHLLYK

[8] = target: T4, Alpha-1A adrenergic receptor (Homo sapiens, UniProt P35348)
T4 sequence (P35348 whole entry): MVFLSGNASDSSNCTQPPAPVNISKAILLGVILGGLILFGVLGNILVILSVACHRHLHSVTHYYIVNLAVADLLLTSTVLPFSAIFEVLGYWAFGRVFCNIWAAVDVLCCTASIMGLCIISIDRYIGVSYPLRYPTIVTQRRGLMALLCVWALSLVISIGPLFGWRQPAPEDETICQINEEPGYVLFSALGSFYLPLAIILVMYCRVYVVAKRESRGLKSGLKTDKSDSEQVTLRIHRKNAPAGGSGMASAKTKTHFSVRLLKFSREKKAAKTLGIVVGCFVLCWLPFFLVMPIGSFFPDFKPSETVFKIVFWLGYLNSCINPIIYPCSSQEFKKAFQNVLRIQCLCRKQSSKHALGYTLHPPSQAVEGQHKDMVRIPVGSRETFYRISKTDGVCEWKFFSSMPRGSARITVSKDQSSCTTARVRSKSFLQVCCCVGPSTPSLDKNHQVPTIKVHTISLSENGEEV

[9] = target: T5, Muscarinic acetylcholine receptor M2 (Homo sapiens, UniProt P08172)
T5 sequence (P08172 whole entry): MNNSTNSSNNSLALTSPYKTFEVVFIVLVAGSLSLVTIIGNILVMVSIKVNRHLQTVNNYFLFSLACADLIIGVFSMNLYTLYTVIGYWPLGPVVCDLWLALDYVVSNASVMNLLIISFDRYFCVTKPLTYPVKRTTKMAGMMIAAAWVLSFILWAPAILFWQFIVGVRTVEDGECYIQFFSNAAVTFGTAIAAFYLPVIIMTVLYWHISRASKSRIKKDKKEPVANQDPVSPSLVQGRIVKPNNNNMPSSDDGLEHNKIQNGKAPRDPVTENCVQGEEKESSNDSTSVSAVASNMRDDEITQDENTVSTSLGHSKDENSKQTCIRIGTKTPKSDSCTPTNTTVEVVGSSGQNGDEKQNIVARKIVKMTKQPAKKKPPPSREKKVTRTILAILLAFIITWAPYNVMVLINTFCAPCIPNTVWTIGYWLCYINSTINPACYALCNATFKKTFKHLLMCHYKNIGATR

[10] = target: Cannabinoid receptor 1 (Homo sapiens, UniProt P21554); type: functional
[11] = target: T3, D(1A) dopamine receptor; remark: listed apart in the source
[12] = target: T3, D(1A) dopamine receptor; type: functional, cell-based
[13] = target: 5-hydroxytryptamine receptor 7 (Homo sapiens, UniProt P34969)
Chain of 5-hydroxytryptamine receptor 7 (P34969 whole entry): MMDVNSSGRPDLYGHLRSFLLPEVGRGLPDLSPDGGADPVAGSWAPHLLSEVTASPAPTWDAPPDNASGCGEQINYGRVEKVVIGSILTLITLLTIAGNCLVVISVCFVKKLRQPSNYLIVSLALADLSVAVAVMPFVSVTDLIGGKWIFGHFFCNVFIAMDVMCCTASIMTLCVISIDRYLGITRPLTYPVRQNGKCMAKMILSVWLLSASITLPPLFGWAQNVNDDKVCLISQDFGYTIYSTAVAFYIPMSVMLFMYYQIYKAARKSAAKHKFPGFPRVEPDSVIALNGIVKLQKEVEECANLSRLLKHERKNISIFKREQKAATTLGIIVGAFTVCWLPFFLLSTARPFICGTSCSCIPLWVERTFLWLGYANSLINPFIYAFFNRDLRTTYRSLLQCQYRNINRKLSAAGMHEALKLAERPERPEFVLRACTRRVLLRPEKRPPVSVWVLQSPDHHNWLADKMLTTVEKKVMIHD

[14] = target: Histamine H1 receptor (Homo sapiens, UniProt P35367); type: functional, cell-based
Chain of Histamine H1 receptor (P35367 whole entry): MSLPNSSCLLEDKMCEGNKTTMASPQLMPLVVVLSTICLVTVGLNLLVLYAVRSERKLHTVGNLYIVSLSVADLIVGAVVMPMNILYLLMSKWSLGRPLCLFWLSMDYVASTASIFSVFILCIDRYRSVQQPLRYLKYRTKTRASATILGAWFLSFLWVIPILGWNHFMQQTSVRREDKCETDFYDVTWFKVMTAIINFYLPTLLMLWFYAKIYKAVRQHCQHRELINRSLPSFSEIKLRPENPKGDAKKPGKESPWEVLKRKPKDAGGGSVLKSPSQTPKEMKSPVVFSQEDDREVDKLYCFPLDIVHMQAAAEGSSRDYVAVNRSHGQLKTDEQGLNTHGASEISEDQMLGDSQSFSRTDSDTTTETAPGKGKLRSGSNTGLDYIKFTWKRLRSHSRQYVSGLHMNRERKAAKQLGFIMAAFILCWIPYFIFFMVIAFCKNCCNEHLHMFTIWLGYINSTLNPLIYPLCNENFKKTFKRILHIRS

[15] = target: Hydroxycarboxylic acid receptor 2 (Homo sapiens, UniProt Q8TDS4)
Chain of Hydroxycarboxylic acid receptor 2 (Q8TDS4 whole entry): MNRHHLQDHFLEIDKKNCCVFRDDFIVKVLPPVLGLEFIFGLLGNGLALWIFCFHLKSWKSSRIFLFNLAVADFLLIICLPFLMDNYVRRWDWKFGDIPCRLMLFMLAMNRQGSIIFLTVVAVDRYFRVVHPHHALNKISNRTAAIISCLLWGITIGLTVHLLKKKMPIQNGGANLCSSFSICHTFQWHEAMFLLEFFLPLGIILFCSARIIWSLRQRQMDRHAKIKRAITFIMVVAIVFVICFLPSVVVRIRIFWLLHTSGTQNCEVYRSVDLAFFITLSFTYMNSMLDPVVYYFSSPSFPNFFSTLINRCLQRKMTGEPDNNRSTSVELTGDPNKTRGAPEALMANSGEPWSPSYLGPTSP

[16] = target: Synaptic vesicular amine transporter (Rattus norvegicus, UniProt Q01827); type: functional
Chain of Synaptic vesicular amine transporter (Q01827 whole entry): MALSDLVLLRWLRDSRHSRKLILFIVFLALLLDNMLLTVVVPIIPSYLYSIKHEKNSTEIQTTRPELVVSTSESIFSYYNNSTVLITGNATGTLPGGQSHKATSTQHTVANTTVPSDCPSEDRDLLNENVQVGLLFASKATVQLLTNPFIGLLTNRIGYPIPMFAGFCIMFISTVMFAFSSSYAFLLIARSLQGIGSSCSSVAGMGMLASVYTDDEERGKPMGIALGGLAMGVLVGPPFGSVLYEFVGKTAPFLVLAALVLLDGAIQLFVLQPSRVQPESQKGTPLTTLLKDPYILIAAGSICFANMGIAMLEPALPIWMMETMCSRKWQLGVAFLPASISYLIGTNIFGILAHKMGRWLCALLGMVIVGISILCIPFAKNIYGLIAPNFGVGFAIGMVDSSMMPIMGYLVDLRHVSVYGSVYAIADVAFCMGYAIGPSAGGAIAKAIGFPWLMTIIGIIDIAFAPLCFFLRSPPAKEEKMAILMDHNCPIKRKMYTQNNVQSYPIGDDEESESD

[17] = target: T6, Muscarinic acetylcholine receptor M1 (Homo sapiens, UniProt P11229)
T6 sequence (P11229 whole entry): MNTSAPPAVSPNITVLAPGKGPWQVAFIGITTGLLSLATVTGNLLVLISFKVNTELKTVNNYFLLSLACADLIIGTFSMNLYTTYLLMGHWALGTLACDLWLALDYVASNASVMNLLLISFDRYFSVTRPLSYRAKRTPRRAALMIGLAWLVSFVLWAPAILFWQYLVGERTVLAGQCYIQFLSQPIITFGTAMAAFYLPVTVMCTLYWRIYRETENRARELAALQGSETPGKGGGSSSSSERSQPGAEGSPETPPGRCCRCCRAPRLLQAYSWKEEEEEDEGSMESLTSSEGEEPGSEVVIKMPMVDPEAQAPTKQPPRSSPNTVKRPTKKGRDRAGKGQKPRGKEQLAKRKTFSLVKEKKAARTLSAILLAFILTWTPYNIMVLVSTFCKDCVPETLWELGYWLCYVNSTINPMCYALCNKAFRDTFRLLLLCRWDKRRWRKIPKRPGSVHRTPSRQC
Further: assay procedure not described here.

C[C@]12CCC(=O)C=C1CC[C@H]1[C@@H]3CC[C@](O)(C(=O)CO)[C@@]3(C)C[C@H](O)[C@@]12F [FLUDROCORTISONE]
AC50 [1]: > 30 µM
AC50 [2]: > 30 µM
AC50 [3]: > 10 µM
AC50 [4]: > 10 µM

CCOC(=O)Nc1ccc(NCc2ccc(F)cc2)nc1N [FLUPIRTINE]
AC50 [5]: > 30 µM

NCC1(CC(=O)O)CCCCC1 [GABAPENTIN]
AC50 [6]: > 10 µM
AC50 [7]: > 10 µM
AC50 [8]: > 10 µM
AC50 [9]: > 30 µM
AC50 [1]: > 30 µM
AC50 [2]: > 30 µM
AC50 [3]: > 10 µM
AC50 [10]: > 10 µM
AC50 [11]: > 30 µM
AC50 [12]: > 30 µM
AC50 [13]: > 10 µM

OCCOCCN1CCN(C(c2ccccc2)c2ccc(Cl)cc2)CC1 (stereo not given) [HYDROXYZINE]
AC50 [6]: 2.2 µM
AC50 [14]: 0.45 µM
AC50 [8]: 0.546 µM
AC50 [1]: > 30 µM
AC50 [2]: > 30 µM
AC50 [3]: > 10 µM
AC50 [15]: > 10 µM
AC50 [13]: 6.8 µM
AC50 [4]: 0.146 µM

C[C@@H](O)[C@H]1C(=O)N2C(C(=O)O)=C(SCCN=CN)C[C@H]12 [IMIPENEM ANHYDROUS]
AC50 [12]: > 300 µM

N#Cc1ccnc(N2C(=O)CC[C@H]2C(=O)N(c2cncc(F)c2)[C@H](C(=O)NC2CC(F)(F)C2)c2ccccc2Cl)c1 [IVOSIDENIB]
AC50 [16]: > 30 µM

Nc1nnc(-c2cccc(Cl)c2Cl)c(N)n1 [LAMOTRIGINE]
AC50 [8]: 11.1 µM
AC50 [1]: > 30 µM
AC50 [2]: > 30 µM
AC50 [3]: > 10 µM
AC50 [15]: > 10 µM
AC50 [16]: 18 µM

O=C1[C@@H]2[C@H]3CC[C@H](C3)[C@@H]2C(=O)N1C[C@@H]1CCCC[C@H]1CN1CCN(c2nsc3ccccc23)CC1 [LURASIDONE]
AC50 [16]: 0.0699 µM

CCCCCCO[C@@H](C)c1cccc(-c2csc(NC(=O)c3cc(Cl)c(/C=C(\C)C(=O)O)c(Cl)c3)n2)c1OC [LUSUTROMBOPAG]
AC50 [17]: > 30 µM
AC50 [16]: 4.1 µM

CO[C@@H]1[C@@H](OC(N)=O)[C@@H](O)[C@H](Oc2ccc3c(O)c(NC(=O)c4ccc(O)c(CC=C(C)C)c4)c(=O)oc3c2C)OC1(C)C [NOVOBIOCIN]
AC50 [12]: > 30 µM

CCCCCCCC/C=C\CCCCCCCC(=O)O [OLEIC ACID]
AC50 [16]: 4.7 µM

C#CCN(C)Cc1ccccc1 [PARGYLINE]
AC50 [14]: > 30 µM
AC50 [17]: > 30 µM

CC(=O)SCC(Cc1ccccc1)C(=O)NCC(=O)OCc1ccccc1 (stereo not given) [RACECADOTRIL]
AC50 [3]: > 10 µM
AC50 [4]: > 10 µM

CCOc1ccccc1OCCN[C@H](C)Cc1ccc(OC)c(S(N)(=O)=O)c1 [TAMSULOSIN]
AC50 [4]: 14.4 µM

COc1cc2c(cc1OC)C1CC(=O)C(CC(C)C)CN1CC2 (stereo not given) [TETRABENAZINE]
AC50 [12]: > 30 µM

Cc1ccc(C(C)C)c(O)c1 [THYMOL]
AC50 [16]: 25 µM

Cc1c(C)c2c(c(C)c1O)CCC(C)(COc1ccc(CC3SC(=O)NC3=O)cc1)O2 (stereo not given) [TROGLITAZONE]
AC50 [7]: > 10 µM
AC50 [1]: > 30 µM
AC50 [2]: > 30 µM

c1cnc2cc3c(cc2n1)[C@@H]1CNC[C@H]3C1 [VARENICLINE]
AC50 [12]: > 30 µM

Nc1c2c(nc3ccccc13)CCCC2O (stereo not given) [VELNACRINE]
AC50 [12]: > 30 µM
